Consider 14 molecules from PMC8219945 (Bioorganic Chemistry, 2021).

Structures are written as SMILES. Where two headings read alike, the source gives them in different places.

This assay deals with SARS-CoV-2. The assay is described as follows: Antiviral IC50 determination. Type of assay: cell-based, SARS-CoV-2 (hCoV-19/Egypt/NRC-03/2020).

For the molecule `COc1ccccc1-n1cc(COc2cc(C(F)(F)F)nc3ccc(F)cc23)nn1` [Compound 10h, 6-Fluoro-4-((1-(2-methoxyphenyl)-1H-1,2,3-triazol-4-yl)methoxy)-2-(trifluoromethyl)quinoline], for the setting “CC50 VERO-E6 / IC50 SARS-CoV-2”, the “SI (selectivity index/therapeutical index): CC50/IC50” value stood at 0.76.
The same measure, in the same setting: for `Cc1ccc2nc(C(F)(F)F)cc(OCc3cn(-c4ccccc4Cl)nn3)c2c1` [Compound 10i, 4-((1-(2-Chlorophenyl)-1H-1,2,3-triazol-4-yl)methoxy)-6-methyl-2-(trifluoromethyl)quinoline] the value was 4.51; for `FC(F)(F)c1cc(OCc2cn(-c3ccccc3Cl)nn2)c2ccccc2n1` [Compound 10d, 4-((1-(2-Chlorophenyl)-1H-1,2,3-triazol-4-yl)methoxy)-2-(trifluoromethyl)quinoline], 2.85; for `COc1ccccc1-n1cc(Cn2c(C(F)(F)F)cc(=O)c3cc(C)ccc32)nn1` [Compound 11c, 1-((1-(2-Methoxyphenyl)-1H-1,2,3-triazol-4-yl)methyl)-6-methyl-2-(trifluoromethyl)quinolin-4(1H)-one], 3.15.
Consider `Cc1ccc(-n2cc(COc3cc(C(F)(F)F)nc4ccccc34)nn2)cc1` [Compound 10b, 4-((1-(p-Tolyl)-1H-1,2,3-triazol-4-yl)methoxy)-2-(trifluoromethyl)quinoline], for which, under “CC50 VERO-E6 / IC50 SARS-CoV-2”, the “SI (selectivity index/therapeutical index): CC50/IC50” value came to 0.49.
Same read-out and setting: the result for `Cc1ccc(-n2cc(COc3cc(C(F)(F)F)nc4ccc(F)cc34)nn2)cc1` [Compound 10f, 6-Fluoro-4-((1-(p-tolyl)-1H-1,2,3-triazol-4-yl)methoxy)-2-(trifluoromethyl)quinoline] reads 1.71; that for `COc1ccc(-n2cc(Cn3c(C(F)(F)F)cc(=O)c4ccccc43)nn2)cc1` [Compound 11a, 1-((1-(4-Methoxyphenyl)-1H-1,2,3-triazol-4-yl)methyl)-2-(trifluoromethyl)quinolin-4(1H)-one], 3.69; that for `COc1ccc2nc(C(F)(F)F)cc(OCc3cn(-c4ccc(F)cc4)nn3)c2c1` [Compound 10k, 4-((1-(4-Fluorophenyl)-1H-1,2,3-triazol-4-yl)methoxy)-6-methoxy-2-(trifluoromethyl)quinoline], 1.34.
On the same count and under the same terms, the result for `COc1ccc(-n2cc(COc3cc(C(F)(F)F)nc4ccccc34)nn2)cc1` [Compound 10c, 4-((1-(4-Methoxyphenyl)-1H-1,2,3-triazol-4-yl)methoxy)-2-(trifluoromethyl)quinoline] reads 0.03.
Still for that read-out and setting: the result for `COc1ccc2nc(C(F)(F)F)cc(OCc3cn(-c4ccc(C)cc4)nn3)c2c1` [Compound 10l, 6-Methoxy-4-((1-(p-tolyl)-1H-1,2,3-triazol-4-yl)methoxy)-2-(trifluoromethyl)quinoline] reads 0.65.
As to `CCN(CCO)CCCC(C)Nc1ccnc2cc(Cl)ccc12` (centres unmarked) [HCQ, hydroxychloroquine, reference compound], the “SI (selectivity index/therapeutical index): CC50/IC50” value was determined as 10.85.
In the case of `Fc1ccc2nc(C(F)(F)F)cc(OCc3cn(-c4ccccc4Cl)nn3)c2c1` [Compound 10g, 4-((1-(2-Chlorophenyl)-1H-1,2,3-triazol-4-yl)methoxy)-6-fluoro-2-(trifluoromethyl)quinoline], for the setting “CC50 VERO-E6 / IC50 SARS-CoV-2”, the “SI (selectivity index/therapeutical index): CC50/IC50” value turned out to be 26.42.
The same measure, in the same setting: for `COc1ccccc1-n1cc(COc2cc(C(F)(F)F)nc3ccccc23)nn1` [Compound 10e, 4-((1-(2-Methoxyphenyl)-1H-1,2,3-triazol-4-yl)methoxy)-2-(trifluoromethyl)quinoline] the value was 0.03; for `Fc1ccc(-n2cc(COc3cc(C(F)(F)F)nc4ccccc34)nn2)cc1` [Compound 10a, 4-((1-(4-Fluorophenyl)-1H-1,2,3-triazol-4-yl)methoxy)-2-(trifluoromethyl)quinoline], 5.04.
